Tested on: primary HSCs
Details: Day_6_JQ1

Cc1sc2c(c1C)C(c1ccc(Cl)cc1)=N[C@@H](CC(=O)OC(C)(C)C)c1nnc(C)n1-2 [JQ1, (S)-tert-butyl 2-(4-(4-chlorophenyl)-2,3,9-trimethyl-6H-thieno[3,2-f][1,2,4]triazolo[4,3-a][1,4]diazepin-6-yl)acetate]
1110067D22Rik value_2: 7.6991
9930013L23Rik value_2: 31.3095
A430110N23Rik value_2: 1.529
Acot11 value_2: 1.6538
Acpl2 value_2: 7.205
Adam8 value_2: 11.9385
Adamts12 value_2: 17.1447
Adcy1 value_2: 0.8092
Adcy5 value_2: 0.9801
Adcy7 value_2: 3.439
Aif1l value_2: 1.208
Akap5 value_2: 1.478
Aldh1a2 value_2: 19.1605
Aldh1l1 value_2: 1.536
Aldh1l2 value_2: 7.698
Ankrd55 value_2: 7.519
Apbb1ip value_2: 18.5518
Apbb1 value_2: 7.273
Arhgef6 value_2: 2.025
Arhgef25 value_2: 25.9937
Arl5a value_2: 37.4802
Arsb value_2: 16.7663
Avpr1a value_2: 1.651
B3galnt1 value_2: 2.653
B4galt2 value_2: 15.1944
Bag2 value_2: 14.4878
Bdnf value_2: 4.6088
Bnip3 value_2: 18.6877
Boc value_2: 14.1708
Cacng7 value_2: 2.276
Casp12 value_2: 4
Ccbe1 value_2: 26.2027
Ccnd2 value_2: 143.49
Ccng1 value_2: 163.356
Cd276 value_2: 5.674
Cdh11 value_2: 17.4722
Celf2 value_2: 11.1573
Cercam value_2: 9.775
Chpf value_2: 51.0364
Chst12 value_2: 44.2429
Chsy3 value_2: 4.1726
Cnrip1 value_2: 15.1406
Col1a1 value_2: 830.694
Col4a5 value_2: 36.069
Col12a1 value_2: 37.8465
Col16a1 value_2: 5.064
Copz2 value_2: 47.0355
Cplx2 value_2: 3.358
Crispld2 value_2: 4.912
Crlf1 value_2: 26.6612
Csrp2 value_2: 137.115
Cul7 value_2: 19.1665
Cxx1c value_2: 13.5431
D4Bwg0951e value_2: 30.19
Ddah1 value_2: 10.4898
Dhrs1 value_2: 30.0462
Dmpk value_2: 26.4788
Dnpep value_2: 41.0591
Dpysl3 value_2: 14.2712
Dynlrb1 value_2: 162.462
Dzip1l value_2: 10.8578
Emp2 value_2: 8.903
Enpp5 value_2: 25.6268
Ext1 value_2: 80.2965
Extl3 value_2: 35.6167
Fah value_2: 1.793
Fam19a5 value_2: 1.344
Fam20a value_2: 11.2001
Fam38b value_2: 3.39
Fam110c value_2: 13.4372
Fam132a value_2: 4.331
Fap value_2: 1.601
Fbxw9 value_2: 14.3107
Fkbp7 value_2: 40.2493
Fmod value_2: 2.369
Fndc1 value_2: 15.189
Fndc4 value_2: 1.244
Folr1 value_2: 1.905
Foxc2 value_2: 1.453
Foxf2 value_2: 1.6602
Frzb value_2: 144.416
Fstl3 value_2: 14.8692
Fzd6 value_2: 2.328
Gdf6 value_2: 25.9944
Gm2a value_2: 22.5206
Gm14420 value_2: 13.7546
Gmpr value_2: 8.026
Gpc1 value_2: 10.285
Gpc4 value_2: 94.2819
Gpr39 value_2: 22.0499
Gpr133 value_2: 3.842
Gpr180 value_2: 14.9448
Gria4 value_2: 2.6
Gys1 value_2: 11.4841
Hk2 value_2: 9.851
Hoxb2 value_2: 33.6747
Hrct1 value_2: 3.228
Hs6st2 value_2: 23.4423
Hspb1 value_2: 104.396
Hspg2 value_2: 105.328
Igf2 value_2: 3.249
Igfbp2 value_2: 2.5845
Iglon5 value_2: 2.148
Ikbip value_2: 68.3911
Itga5 value_2: 44.6427
Jub value_2: 23.4821
Kank1 value_2: 15.8777
Kazald1 value_2: 4.522
Kcne4 value_2: 8.547
Kdm5b value_2: 17.3352
Kif21b value_2: 8.145
Kif26b value_2: 3.17
Klhl26 value_2: 25.6223
Lclat1 value_2: 20.6695
Lepre1 value_2: 61.4792
Leprel1 value_2: 4.84
Leprel2 value_2: 31.892
Lgals1 value_2: 1464.5
Lims2 value_2: 12.2591
Lox13 value_2: 12.0376
Loxl1 value_2: 78.0679
Loxl2 value_2: 668.398
Lrrn2 value_2: 1.8093
Mageh1 value_2: 22.8542
Man2b2 value_2: 26.9926
Mpzl1 value_2: 88.2456
Mrvi1 value_2: 2.602
Myh10 value_2: 34.498
Myh11 value_2: 6.328
Myl6 value_2: 531.936
Mylk value_2: 62.0714
Myo1d value_2: 22.5024
Myof value_2: 42.2087
Ncam1 value_2: 8.073
Ndrg2 value_2: 12.6911
Nexn value_2: 6.343
Nid2 value_2: 130.153
Nts value_2: 3.21
Numbl value_2: 22.4916
Obsl1 value_2: 3.108
P4ha1 value_2: 120.896
Palld value_2: 17.5752
Pcsk5 value_2: 4.88
Pde1a value_2: 9.282
Pdlim4 value_2: 4.7862
Pfkfb4 value_2: 2.359
Phlda3 value_2: 132.249
Phldb2 value_2: 149.373
Phyhd1 value_2: 3.552
Pla2g15 value_2: 24.3031
Plac8 value_2: 104.172
Plekhg3 value_2: 18.1798
Plp2 value_2: 16.6661
Plscr2 value_2: 7.544
Plscr4 value_2: 8.1813
Pmepa1 value_2: 29.4329
Pmm1 value_2: 54.8681
Pmp22 value_2: 85.9788
Podn value_2: 1.458
Polr3k value_2: 22.8928
Pon3 value_2: 19.5497
Popdc2 value_2: 4.263
Ppapdc1b value_2: 13.4067
Ppp1r14a value_2: 20.201
Pppde2 value_2: 20.4808
Prdx2 value_2: 167.804
Prickle1 value_2: 14.268
Prrc1 value_2: 19.9334
Psrc1 value_2: 6.874
Pter value_2: 1.743
Ptpla value_2: 12.4632
Ptplad2 value_2: 8.106
Pvrl2 value_2: 81.9103
Pygl value_2: 3.275
Rab7l1 value_2: 5.901
Rab15 value_2: 1.498
Rab34 value_2: 55.2701
Rab3d value_2: 8.99
Rftn2 value_2: 1.387
Rhobtb3 value_2: 13.6471
Rnft1 value_2: 17.8003
Ror1 value_2: 6.1328
Rprd1a value_2: 7.118
Runx2 value_2: 3.741
Ryk value_2: 55.3732
S100a1 value_2: 70.3658
Sardh value_2: 3.193
Sat2 value_2: 5.26
Sce1 value_2: 3.6703
Selm value_2: 80.5867
Sepx1 value_2: 93.1036
Serpine2 value_2: 7.825
Serpinh1 value_2: 1190.39
Setd7 value_2: 32.7601
Sfrp1 value_2: 33.2277
Sgce value_2: 7.751
Sh3gl3 value_2: 1.09
Sh3kbp1 value_2: 10.1373
Shisa3 value_2: 4.345
Skp2 value_2: 4.997
Slc2a10 value_2: 2.062
Slc35a2 value_2: 23.1121
Slc44a2 value_2: 59.6308
Slit3 value_2: 39.3977
Snai1 value_2: 35.4904
Snta1 value_2: 25.2902
Snx30 value_2: 13.1255
Sparcl1 value_2: 5.629
Speg value_2: 7.409
Spp1 value_2: 226.746
Srgap3 value_2: 1.389
Srpx value_2: 2.6404

— patent publication US20180325914A1, “INCREASING STORAGE OF VITAMIN A, VITAMIN D AND/OR LIPIDS” (Salk Institute for Biological Studies, priority 2014, published 2018)
